Source: ChEMBL document CHEMBL1201862, “PubChem BioAssay data set” (2004)
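Assay format: 96-well plates, 48-hour exposure. The concentration for 50% growth inhibition is given as GI50.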 Active and inactive are the calls of the source. Rule as the data show it: active = GI50 up to about 1.1 µM and inactive = higher.

Tests used:
Experiment in all cases: growth of human tumour cells (NCI), 48 h
K562 = tested on: K562
786-0 = tested on: 786-0
Hs-578T = tested on: Hs-578T
COLO 205 = tested on: COLO 205
NCI/ADR-RES = tested on: NCI/ADR-RES
HOP-92 = tested on: HOP-92
U-251 = tested on: U-251
HOP-62 = tested on: HOP-62
SF-295 = tested on: SF-295
HCT-116 = tested on: HCT-116
HCT-15 = tested on: HCT-15
HL-60 = tested on: HL-60
KM12 = tested on: KM12
SK-MEL-5 = tested on: SK-MEL-5
HCC 2998 = tested on: HCC 2998
SW-620 = tested on: SW-620
SF-539 = tested on: SF-539
UACC-62 = tested on: UACC-62
DU-145 = tested on: DU-145

Structure (SMILES)	GI50 (K562)	GI50 (786-0)	GI50 (Hs-578T)	GI50 (COLO 205)	GI50 (NCI/ADR-RES)	GI50 (HOP-92)	GI50 (U-251)	GI50 (HOP-62)	GI50 (SF-295)	GI50 (HCT-116)	GI50 (HCT-15)	GI50 (HL-60)	GI50 (KM12)	GI50 (SK-MEL-5)	GI50 (HCC 2998)	GI50 (SW-620)	GI50 (SF-539)	GI50 (UACC-62)	GI50 (DU-145)
OCCCCCNc1cc(O)nc(O)n1	> 100 µM (inactive)	> 100 µM (inactive)	> 100 µM (inactive)	> 100 µM (inactive)	> 100 µM (inactive)	> 100 µM (inactive)	> 100 µM (inactive)	> 100 µM (inactive)	> 100 µM (inactive)	> 100 µM (inactive)	> 100 µM	> 100 µM (inactive)	> 100 µM (inactive)	> 100 µM (inactive)	> 100 µM (inactive)	> 100 µM (inactive)	> 100 µM (inactive)	> 100 µM (inactive)	–
O=C1NC2ON=C(c3ccccc3)C2C2ON=C(c3ccccc3)N12 (stereo not given)	–	> 100 µM (inactive)	63.2 µM (inactive)	> 100 µM (inactive)	45.9 µM (inactive)	–	–	> 100 µM (inactive)	> 100 µM (inactive)	–	43.4 µM	–	69.2 µM (inactive)	54 µM (inactive)	> 100 µM (inactive)	–	> 100 µM (inactive)	> 100 µM (inactive)	> 100 µM (inactive)
COc1ccc(OC)c(CCc2cc(OC)c(OC)cc2C)c1	3.64 µM (inactive)	38.7 µM (inactive)	–	33.4 µM (inactive)	–	–	43.4 µM (inactive)	49.1 µM (inactive)	6.89 µM (inactive)	–	–	–	0.63 µM (active)	1.62 µM (inactive)	27.5 µM (inactive)	5.6 µM (inactive)	–	25.2 µM (inactive)	–
O=C1CC(O)c2c1csc2Br (stereo not given)	25.6 µM (inactive)	17.9 µM (inactive)	26.6 µM (inactive)	41.3 µM (inactive)	20.7 µM (inactive)	–	19.8 µM (inactive)	73.6 µM (inactive)	60.7 µM (inactive)	18.5 µM (inactive)	18.5 µM	–	18.7 µM (inactive)	> 100 µM (inactive)	19.2 µM (inactive)	15.3 µM (inactive)	–	22.7 µM (inactive)	25.9 µM (inactive)
NNC(=O)CNC(=O)CSc1nnc(COc2ccc(Cl)cc2)n1-c1ccccc1	> 100 µM (inactive)	> 100 µM (inactive)	–	> 100 µM (inactive)	> 100 µM (inactive)	> 100 µM (inactive)	> 100 µM (inactive)	> 100 µM (inactive)	> 100 µM (inactive)	> 100 µM (inactive)	> 100 µM	> 100 µM (inactive)	> 100 µM (inactive)	–	> 100 µM (inactive)	> 100 µM (inactive)	> 100 µM (inactive)	> 100 µM (inactive)	> 100 µM (inactive)
COC(=O)c1cc(Br)c(C(=O)C(Cl)(Cl)Cl)[nH]1	> 100 µM (inactive)	> 100 µM (inactive)	–	> 100 µM (inactive)	> 100 µM (inactive)	> 100 µM (inactive)	> 100 µM (inactive)	> 100 µM (inactive)	> 100 µM (inactive)	> 100 µM (inactive)	> 100 µM	> 100 µM (inactive)	> 100 µM (inactive)	> 100 µM (inactive)	–	> 100 µM (inactive)	> 100 µM (inactive)	> 100 µM (inactive)	> 100 µM (inactive)
CCOc1ccc(N/C(=C(/C(Cl)=C(/Cl)N(CC)CC)[N+](=O)[O-])n2nnc3ccccc32)cc1	> 100 µM (inactive)	17.2 µM (inactive)	47.6 µM (inactive)	21.6 µM (inactive)	21.1 µM (inactive)	–	14 µM (inactive)	30.7 µM (inactive)	30.6 µM (inactive)	16.7 µM (inactive)	19.1 µM	–	12 µM (inactive)	–	> 100 µM (inactive)	14.2 µM (inactive)	23.2 µM (inactive)	13.1 µM (inactive)	–
O=C(N/N=C\c1cccs1)c1ccncc1	> 100 µM (inactive)	> 100 µM (inactive)	> 100 µM (inactive)	> 100 µM (inactive)	> 100 µM (inactive)	> 100 µM (inactive)	> 100 µM (inactive)	> 100 µM (inactive)	> 100 µM (inactive)	> 100 µM (inactive)	> 100 µM	> 100 µM (inactive)	> 100 µM (inactive)	> 100 µM (inactive)	> 100 µM (inactive)	> 100 µM (inactive)	> 100 µM (inactive)	> 100 µM (inactive)	–
C[C@@H]1CC[C@H]2[C@H](C)C(OC3O[C@@H]4O[C@@]5(C)CC[C@H]6[C@H](C)CC[C@@H]([C@@H]3C)[C@@]46O5)O[C@@H]3O[C@@]4(C)CC[C@@H]1[C@]32O4 (stereo not given in full)	> 100 µM (inactive)	> 100 µM (inactive)	> 100 µM (inactive)	> 100 µM (inactive)	–	–	> 100 µM (inactive)	> 100 µM (inactive)	> 100 µM (inactive)	> 100 µM (inactive)	> 100 µM	> 100 µM (inactive)	> 100 µM (inactive)	> 100 µM (inactive)	> 100 µM (inactive)	> 100 µM (inactive)	> 100 µM (inactive)	> 100 µM (inactive)	> 100 µM (inactive)
O=C1CCCC1CC(CN1CCOCC1)Sc1nnnn1-c1ccccc1 (stereo not given)	> 100 µM (inactive)	> 100 µM (inactive)	–	16.6 µM (inactive)	> 100 µM (inactive)	> 100 µM (inactive)	> 100 µM (inactive)	> 100 µM (inactive)	> 100 µM (inactive)	> 100 µM (inactive)	–	16.7 µM (inactive)	> 100 µM (inactive)	> 100 µM (inactive)	> 100 µM (inactive)	> 100 µM (inactive)	> 100 µM (inactive)	> 100 µM (inactive)	77.4 µM (inactive)
COc1ccc(-c2c(C(C)=O)c(-c3ccccc3)n(C3OC(COC(C)=O)C(OC(C)=O)C(OC(C)=O)C3OC(C)=O)c(=S)c2C#N)cc1 (stereo not given)	> 100 µM (inactive)	> 100 µM (inactive)	–	> 100 µM (inactive)	> 100 µM (inactive)	19.2 µM (inactive)	> 100 µM (inactive)	> 100 µM (inactive)	> 100 µM (inactive)	> 100 µM (inactive)	> 100 µM	> 100 µM (inactive)	> 100 µM (inactive)	> 100 µM (inactive)	> 100 µM (inactive)	> 100 µM (inactive)	> 100 µM (inactive)	> 100 µM (inactive)	> 100 µM (inactive)
COc1ccc(C2C3=C(CCCC3=O)N(c3ccccc3)C3=C2C(=O)CCC3)cc1	> 100 µM (inactive)	45.6 µM (inactive)	43.2 µM (inactive)	–	> 100 µM (inactive)	29 µM (inactive)	75.7 µM (inactive)	–	–	–	> 100 µM	> 100 µM (inactive)	> 100 µM (inactive)	> 10 µM (inactive)	–	> 100 µM (inactive)	> 100 µM (inactive)	87.1 µM (inactive)	–
O=C1CCc2ccc(O)c(c2)Oc2ccc(cc2)[C@@H]2O[C@@H]2CO1	24.6 µM (inactive)	> 100 µM (inactive)	–	98.9 µM (inactive)	–	23.7 µM (inactive)	67.8 µM (inactive)	> 100 µM (inactive)	56.1 µM (inactive)	48.2 µM (inactive)	–	37.9 µM (inactive)	72.8 µM (inactive)	23.6 µM (inactive)	> 100 µM (inactive)	53.6 µM (inactive)	70.6 µM (inactive)	30.5 µM (inactive)	–
